≈ marks a conversion by molar mass, not a printed value. Like-named read-outs stand apart in the source and are kept apart here.
Assays:
[1] = system: Escherichia coli ATCC 25922; assay: Broth microdilution antibacterial activity (MIC/MBC), CLSI M07; format: cell-based; conditions: 24 h at 37 °C; for MBC (minimal bactericidal concentration) / MIC (minimal inhibitory concentration): Mueller-Hinton medium
Protocol: (§1) The antibacterial activity of the enrofloxacin salts was determined against two Gram-positive strains (Staphylococcus aureus ATCC 6358, Streptococcus pyogenes ATCC 19615) and two Gram-negative bacteria (Escherichia coli ATCC 25922, Pseudomonas aeruginosa ATCC 15442). The determination was performed in accordance with Clinical and Laboratory Standards Institute (CLSI) standard […] for antimicrobial susceptibility testing of aerobic bacteria. The assessment was performed using the broth microdilution method with Mueller-Hinton medium. The tested samples were accompanied by biotic controls, i.e. without the addition of newly synthesized compounds, and abiotic controls, i.e. without the addition of microorganisms. All probes were incubated for 24 h at 37 °C. Microbial growth was measured using a microplate reader (Multiskan FC Microplate Photometer, ThermoFisher Scientific, Pudong, Shanghai, China) at λ = 630 nm. The follow were determined: the minimal inhibitory concentration (MIC), defined as the lowest concentration of a compound that prevents visible growth of bacteria, and minimal bactericidal concentration (MBC), defined as the lowest concentration of a substance that completely limits the viability of microorganisms.

[2] = system: Pseudomonas aeruginosa ATCC 15442; assay: as above; format: cell-based; conditions: 24 h at 37 °C; for MBC (minimal bactericidal concentration) / MIC (minimal inhibitory concentration): Mueller-Hinton medium
Protocol: as §1

[3] = system: Staphylococcus aureus ATCC 6358; assay: as above; format: cell-based; conditions: 24 h at 37 °C; for MBC (minimal bactericidal concentration) / MIC (minimal inhibitory concentration): Mueller-Hinton medium
Protocol: as §1

[4] = system: Streptococcus pyogenes ATCC 19615; assay: as above; format: cell-based; conditions: 24 h at 37 °C; for MBC (minimal bactericidal concentration) / MIC (minimal inhibitory concentration): Mueller-Hinton medium
Protocol: as §1

[5] = Water solubility by the gravimetric method; format: physicochemical; conditions: 25 °C
Protocol: Temperature was maintained using a calibrated UltraUB 20 F with a DLK 25 circulating cooler (Lauda, Germany). A specific amount of the substance under investigation was carefully weighed using a precise analytical balance (Sartorius RC 210D). The mixture of salts and water was thoroughly mixed to ensure complete dissolution of the substance under investigation and left for 2 h to achieve equilibrium between the solution and the precipitate. Then, the solution was filtered, and the remaining precipitate was dried to a constant mass to remove the solvent. The difference between the initial mass of the substance m0 and the mass of the undissolved substance m1 allowed for the determination of the mass of the substance dissolved in the given mass of solvent.
Each measurement was taken in triplicate.

[6] = cited from earlier work

| Structure (SMILES) | MIC (minimal inhibitory concentration) [1] [µg/mL] | MIC (minimal inhibitory concentration) [2] [µg/mL] | MIC (minimal inhibitory concentration) [3] [µg/mL] | MIC (minimal inhibitory concentration) [4] [µg/mL] | MBC (minimal bactericidal concentration) [1] [µg/mL] | MBC (minimal bactericidal concentration) [2] [µg/mL] | MBC (minimal bactericidal concentration) [3] [µg/mL] | MBC (minimal bactericidal concentration) [4] [µg/mL] | other results |
| --- | --- | --- | --- | --- | --- | --- | --- | --- | --- |
| CCN1CCN(c2cc3c(cc2F)c(=O)c(C(=O)O)cn3C2CC2)CC1 [EFX, 1-cyclopropyl-7-(4-ethyl-1-piperazinyl)-6-fluoro-1,4-dihydro-4-oxo-3-quinolinecarboxylic acid, reference compound] |  |  |  |  |  |  |  |  | MBC ([1]; ATCC25922, Mueller-Hinton medium, read-out: MBC (minimal bactericidal concentration)): 0.0078 µg/mL (≈ 0.0217 µM); MIC ([1]; ATCC25922, Mueller-Hinton medium, read-out: MIC (minimal inhibitory concentration)): 0.0078 µg/mL (≈ 0.0217 µM); MBC ([2]; ATCC15442, Mueller-Hinton medium, read-out: MBC (minimal bactericidal concentration)): 1 µg/mL (≈ 2.78 µM); MIC ([2]; ATCC15442, Mueller-Hinton medium, read-out: MIC (minimal inhibitory concentration)): 0.5 µg/mL (≈ 1.39 µM); MBC ([3]; ATCC6358, Mueller-Hinton medium, read-out: MBC (minimal bactericidal concentration)): 0.25 µg/mL (≈ 0.696 µM); MIC ([3]; ATCC6358, Mueller-Hinton medium, read-out: MIC (minimal inhibitory concentration)): 0.0625 µg/mL (≈ 0.174 µM); MBC ([4]; ATCC19615, Mueller-Hinton medium, read-out: MBC (minimal bactericidal concentration)): 0.125 µg/mL (≈ 0.348 µM); MIC ([4]; ATCC19615, Mueller-Hinton medium, read-out: MIC (minimal inhibitory concentration)): 0.0625 µg/mL (≈ 0.174 µM); solubility at 2 h ([5]; thermodynamic from solid): 176 µg/mL (≈ 490 µM); solubility in water ([6]; ref 34): 610 µg/mL (≈ 1700 µM); solubility in water ([6]; ref 41): 140 µg/mL (≈ 390 µM) |
| O=C(O)CC(O)C(=O)O (stereo not drawn) [malic acid] |  |  |  |  |  |  |  |  | solubility in water ([6]; ref 41): 16130 µg/mL (≈ 120000 µM) |
| CCN1CCN(c2cc3c(cc2F)c(=O)c(C(=O)O)cn3C2CC2)CC1.O=C(O)c1cccnc1C(=O)O [EFX·Py2,3DCA] | 0.0078 | 1 | 0.25 | 0.125 | 0.031 | 2 | 0.25 | 0.25 |  |
| O=C(O)c1ccc(C(=O)O)nc1 [Py2,5DCA, pyridine-2,5-dicarboxylic acid] |  |  |  |  |  |  |  |  | solubility in water [5]: 1237 µg/mL (≈ 7400 µM) |

More lines, main results first:

| MIC (minimal inhibitory concentration) [1] [µg/mL] | MIC (minimal inhibitory concentration) [2] [µg/mL] | MIC (minimal inhibitory concentration) [3] [µg/mL] | MIC (minimal inhibitory concentration) [4] [µg/mL] | Structure (SMILES) | MBC (minimal bactericidal concentration) [1] [µg/mL] | MBC (minimal bactericidal concentration) [2] [µg/mL] | MBC (minimal bactericidal concentration) [3] [µg/mL] | MBC (minimal bactericidal concentration) [4] [µg/mL] | other results |
| --- | --- | --- | --- | --- | --- | --- | --- | --- | --- |
| 0.0078 | 1 | 0.25 | 0.125 | CCN1CCN(c2cc3c(cc2F)c(=O)c(C(=O)O)cn3C2CC2)CC1.O.O=C(O)c1ccc(C(=O)O)nc1 [EFX·Py2,5DCA·H2O] | 0.031 | 2 | 0.25 | 0.25 |  |
| 0.0078 | 1 | 0.25 | 0.125 | CCN1CCN(c2cc3c(cc2F)c(=O)c(C(=O)O)cn3C2CC2)CC1.O.O=C(O)c1cccc(C(=O)O)n1 [EFX·Py2,6DCA·H2O] | 0.015 | 2 | 0.25 | 0.25 |  |
| 0.0078 | 1 | 0.25 | 0.125 | CCN1CCN(c2cc3c(cc2F)c(=O)c(C(=O)O)cn3C2CC2)CC1.O=C(O)c1ccnc(C(=O)O)c1 [EFX·Py2,4DCA] | 0.031 | 2 | 0.25 | 0.25 |  |
